For assay [1], the system named is AKT. The assay is described as follows: AKT signaling immunoblot, platelets. The conditions noted are these: platelets, vs BSA. The format is cell-based, human. On the procedure:
Prior to performing signaling assays, cells were trypsinized, centrifuged, suspended in basal media, and counted using an automated hemocytometer. Cells were further diluted in basal media to an assay-dependent concentration. Cells were then incubated with gentle agitation for 60 minutes to prevent cell attachment and reduce basal signaling. PP1, Dynasore, MK-2206, and Rapamycin were diluted in DMSO and used in assay concentrations of 10 μM, 100 μM, 10 μM, and respectively, for the final 20-30 minutes of incubation in basal media. An equal volume of DMSO was used as the negative control condition. […] 1 μg Pearl 1 polyclonal antibody was added as a specific positive control. 20% growth media or 2% fetal bovine serum, labeled “Serum” in figures, was added as a non-specific positive control. The cells were centrifuged at 300G for 3 minutes with the exception of platelets, which were centrifuged at 500G for 5 minutes. The cells were then incubated at 37° C. for 8-45 minutes, depending on the cell type and pathway of interest. The cells were lysed in radioimmunoprecipitation buffer (RIPA) containing a cocktail of protease and phosphatase inhibitors and universal nuclease. Immunoblots were performed by standard techniques, as briefly follows. Protein content was determined using a bicinchoninic acid assay with BSA standards (#23225, Pierce BCA Protein Assay Kit). Cell lysates were then reduced with dithiothreitol (DTT) in lithium dodecyl sulfate (LDS) sample buffer (#NP0007, Invitrogen). Equal protein amounts were added to polyacrylamide gels (#4561086, BioRad) and electrophoresed prior to transferring to a nitrocellulose or polyvinylidene fluoride membrane (#1620260, BioRad). Membranes were blocked in 5% BSA/Tris-buffered saline (TBS) with 0.1% Tween 20 for 30 minutes. The indicated primary antibodies were incubated with the pre-blocked membranes overnight at 4° C. Membranes were washed with TBS with 0.1% Tween 20, probed with fluorescent secondary antibodies, and imaged. β-actin or β-tubulin served as a loading control.
Whole blood was collected by venipuncture into either heparin vacutainers (BD, Franklin Lakes) for whole blood experiments or acid-citrate-dextrose (ACD) vacutainers (BD, Franklin Lakes) for platelet isolation studies. For platelet isolation, samples were supplemented with apyrase (Sigma, St Louis) and prostaglandin E1 (Cayman Chemical, Ann Arbor), and platelet-rich plasma (PRP) was prepared by centrifugation of the ACD whole blood for 20 minutes at 200G. Platelets were isolated from the PRP by centrifugation for 10 minutes at 1000G and resuspended in modified Tyrode's buffer twice at desired platelet counts and kept at 37° C. until used. Isolated platelets were used within 2 hours of preparation.
For orientation: Immunoblotting shows a protein as a band on a membrane.

In assay [2] the test system is Integrin signaling. The assay is described as follows: Integrin signaling western blot, THP-1 cells. The format is cell-based, human. On the procedure: Cells were resuspended in serum-free media (SFM) and incubated with gentle agitation to prevent cell attachment and reduce basal signaling. […] Cells were briefly centrifuged to the bottom of the wells and incubated for 8 min (for VSMCs) or 15 min (for THP-1 cells) before lysis with cell lysis buffer (#9803, Cell Signaling Technologies) containing a cocktail of protease and phosphatase inhibitors. Western blots were performed by standard techniques, as briefly follows. Protein content was determined using a bicinchoninic acid assay with BSA standards (#23225, Pierce™ BCA Protein Assay Kit). Cell lysates were then reduced with DTT in lithium dodecyl sulfate sample buffer (#NP0007, Invitrogen). Equal protein amounts were added to polyacrylamide gels (#4561086, BioRad) and electrophoresed prior to transferring to a nitrocellulose or polyvinylidene fluoride membrane (#1620260, BioRad). Membranes were blocked in 5% BSA/Tris-Buffered Saline with tween 20 for 30 min. The indicated primary antibodies were incubated with the pre-blocked membranes for overnight at 4° C. Membranes were washed with Tris-Buffered Saline with tween 20, probed with fluorescent secondary antibodies, and imaged. β-actin or β-tubulin served as a loading control.

Assay [3] relates to FGF receptors. Description: Bulk RNA sequencing of VSMCs, Fgfr transcripts. The format is cell-based, mouse. Conditions: RNAseq, normalized to BSA. On the procedure:
Plates were UV sterilized before adding cells. Primary VSMCs were collected, resuspended in DMEM/F12 media containing 10% FBS, plated on precoated, blocked wells, and incubated for 8 hr to ensure complete cell adhesion. Media was replaced with fresh DMEM/F12 containing 1% FBS and incubated for 12 hr before collection. RNA was collected using RNeasy® Mini Kit (#74106, Qiagen). Atherosclerotic aortic arches (including the aortic root, arch, and the proximal regions of its branching vessels) from mice were used as the source of RNA for the later RNAseq experiment. […]
Samples were prepared according to the library kit manufacturer's protocol, indexed, pooled, and sequenced on an Illumina HiSeq. Basecalls and demultiplexing were performed with Illumina's bcl2fastq software and a custom python demultiplexing program with a maximum of one mismatch in the indexing read. RNA-seq reads were then aligned to the Ensembl release 76 primary assembly with STAR version 2.5.1a. Gene counts were derived from the number of uniquely aligned unambiguous reads by Subread:featureCount version 1.4.6-p5 2). […] Sequencing performance was assessed for the total number of aligned reads, the total number of uniquely aligned reads, and the features detected. The ribosomal fraction, known junction saturation, and read distribution over known gene models were quantified with RSeQC version 2.6.2. […]

For assay [4], the system named is HUVECs. Description: HUVEC adhesion assay. The format is cell-based, human. Conditions: wells coated with increasing concentrations, 10 minutes. The method, then:
Subsequently, wells were blocked with 100 mg/mL BSA and washed with DPBS. HUVECs were collected and resuspended in basal media. 5,000 cells were added to each well. Cells were centrifuged and incubated at 37° C. for 10 minutes. The plate was gently centrifuged upside down to remove non-adhered cells. Adhered cells were fixed with 4% paraformaldehyde, stained with 4′,6-diamidino-2-phenylindole (DAPI), and counted by automated microscopy as done previously.

As for “SVEP1: recombinant murine SVEP1 extracellular matrix protein with Myc and poly-histidine tag, expressed in 293F cells”, the “AKT phosphorylation (pAKT)” value in assay [1] was “induced AKT phosphorylation”. In addition, the integrin signaling entry in assay [2] is “activated”. Further, in assay [3], the “expression of FGF receptors” value was “increases expression of FGF receptors”. Also, the “adherence of HUVECs to coated protein” value in assay [4] was “dose-dependent manner up to 20 pg/mL”.

(Values after US20230159620A1, “COMPOSITIONS AND METHODS OF TREATMENT FOR VASCULAR DISEASES AND THROMBOSIS” (Washington University, priority 2021, published 2023).)
